Results as given in the kinase profiling compilation of Christmann-Franck et al. (2016).

What was measured:
Assay in all cases: KINOMEscan competition binding
Settings in all cases: compound 10.0 µM
MARK1 (human) = MARK1 (human) (UniProt Q9P0L2)
AAK1 (human) = AAK1 (human) (UniProt Q2M2I8)
PKN1 (human) = PKN1 (human) (UniProt Q16512)
PLK4 (human) = PLK4 (human) (UniProt O00444)
ROCK1 (human) = ROCK1 (human) (UniProt Q13464)
SRPK3 (human) = SRPK3 (human) (UniProt Q9UPE1)
SIK3 (human) = SIK3 (human) (UniProt Q9Y2K2)
STK32C (human) = STK32C (human) (UniProt Q86UX6)
NTRK2 (human) = NTRK2 (human) (UniProt Q16620)
MAP4K3 (human) = MAP4K3 (human) (UniProt Q8IVH8)
EPHB4 (human) = EPHB4 (human) (UniProt P54760)
EPHB4 (human), sequence (P54760 whole entry, looked up): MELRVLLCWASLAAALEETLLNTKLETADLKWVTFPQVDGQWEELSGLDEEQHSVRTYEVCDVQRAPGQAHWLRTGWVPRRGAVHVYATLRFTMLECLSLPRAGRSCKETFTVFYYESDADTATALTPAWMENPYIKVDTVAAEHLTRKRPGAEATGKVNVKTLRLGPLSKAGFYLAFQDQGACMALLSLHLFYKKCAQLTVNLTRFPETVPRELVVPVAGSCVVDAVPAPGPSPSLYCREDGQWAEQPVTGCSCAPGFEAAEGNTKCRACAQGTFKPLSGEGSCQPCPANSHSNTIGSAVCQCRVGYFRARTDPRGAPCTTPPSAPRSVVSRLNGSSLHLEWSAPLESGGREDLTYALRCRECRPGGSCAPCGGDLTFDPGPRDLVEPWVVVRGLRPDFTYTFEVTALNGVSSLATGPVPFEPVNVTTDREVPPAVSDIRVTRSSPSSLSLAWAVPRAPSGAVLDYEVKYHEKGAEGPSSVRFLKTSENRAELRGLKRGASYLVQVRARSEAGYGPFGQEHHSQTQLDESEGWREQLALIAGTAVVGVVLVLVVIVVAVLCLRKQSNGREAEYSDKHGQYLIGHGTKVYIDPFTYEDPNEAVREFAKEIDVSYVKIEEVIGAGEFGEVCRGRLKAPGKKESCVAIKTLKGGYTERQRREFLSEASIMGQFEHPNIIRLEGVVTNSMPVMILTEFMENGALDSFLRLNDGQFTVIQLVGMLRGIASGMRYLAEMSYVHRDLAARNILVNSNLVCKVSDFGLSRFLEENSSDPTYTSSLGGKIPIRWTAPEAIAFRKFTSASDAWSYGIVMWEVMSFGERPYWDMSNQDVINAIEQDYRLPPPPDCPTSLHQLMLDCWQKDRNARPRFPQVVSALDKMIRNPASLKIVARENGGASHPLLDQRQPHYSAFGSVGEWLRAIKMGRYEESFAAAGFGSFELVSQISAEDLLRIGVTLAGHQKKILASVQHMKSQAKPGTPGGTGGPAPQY

RAF1 (human) = RAF1 (human) (UniProt P04049)
RPS6KA2 KD2 (human) = RPS6KA2 KD2 (human) (UniProt Q15349)
RPS6KA2 KD2 (human), sequence (Q15349 whole entry, looked up): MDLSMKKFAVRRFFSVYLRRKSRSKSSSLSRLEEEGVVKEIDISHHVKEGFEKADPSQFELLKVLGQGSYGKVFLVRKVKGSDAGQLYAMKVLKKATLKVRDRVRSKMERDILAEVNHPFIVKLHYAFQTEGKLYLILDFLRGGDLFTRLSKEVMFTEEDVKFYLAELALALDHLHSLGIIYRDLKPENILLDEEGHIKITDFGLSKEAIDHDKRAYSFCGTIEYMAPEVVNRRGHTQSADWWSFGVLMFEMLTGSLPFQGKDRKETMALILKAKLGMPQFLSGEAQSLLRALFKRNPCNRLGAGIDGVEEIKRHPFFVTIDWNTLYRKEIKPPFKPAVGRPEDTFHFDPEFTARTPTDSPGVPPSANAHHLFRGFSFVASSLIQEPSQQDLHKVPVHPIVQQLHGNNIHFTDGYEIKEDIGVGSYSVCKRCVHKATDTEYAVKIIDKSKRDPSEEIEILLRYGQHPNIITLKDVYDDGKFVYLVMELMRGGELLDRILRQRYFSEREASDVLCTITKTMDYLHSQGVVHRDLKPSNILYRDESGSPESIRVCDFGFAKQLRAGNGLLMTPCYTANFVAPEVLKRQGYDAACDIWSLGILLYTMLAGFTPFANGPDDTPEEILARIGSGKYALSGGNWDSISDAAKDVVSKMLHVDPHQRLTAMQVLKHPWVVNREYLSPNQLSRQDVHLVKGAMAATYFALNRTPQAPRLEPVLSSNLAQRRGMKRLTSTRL

[1] = molecular target: TYK2 JH2 pseudokinase (human) (UniProt P29597)
SRC (human) = SRC (human) (UniProt P12931)
CLK4 (human) = CLK4 (human) (UniProt Q9HAZ1)
FGFR4 (human) = FGFR4 (human) (UniProt P22455)
NTRK1 (human) = NTRK1 (human) (UniProt P04629)
NTRK1 (human), sequence (P04629 whole entry, looked up): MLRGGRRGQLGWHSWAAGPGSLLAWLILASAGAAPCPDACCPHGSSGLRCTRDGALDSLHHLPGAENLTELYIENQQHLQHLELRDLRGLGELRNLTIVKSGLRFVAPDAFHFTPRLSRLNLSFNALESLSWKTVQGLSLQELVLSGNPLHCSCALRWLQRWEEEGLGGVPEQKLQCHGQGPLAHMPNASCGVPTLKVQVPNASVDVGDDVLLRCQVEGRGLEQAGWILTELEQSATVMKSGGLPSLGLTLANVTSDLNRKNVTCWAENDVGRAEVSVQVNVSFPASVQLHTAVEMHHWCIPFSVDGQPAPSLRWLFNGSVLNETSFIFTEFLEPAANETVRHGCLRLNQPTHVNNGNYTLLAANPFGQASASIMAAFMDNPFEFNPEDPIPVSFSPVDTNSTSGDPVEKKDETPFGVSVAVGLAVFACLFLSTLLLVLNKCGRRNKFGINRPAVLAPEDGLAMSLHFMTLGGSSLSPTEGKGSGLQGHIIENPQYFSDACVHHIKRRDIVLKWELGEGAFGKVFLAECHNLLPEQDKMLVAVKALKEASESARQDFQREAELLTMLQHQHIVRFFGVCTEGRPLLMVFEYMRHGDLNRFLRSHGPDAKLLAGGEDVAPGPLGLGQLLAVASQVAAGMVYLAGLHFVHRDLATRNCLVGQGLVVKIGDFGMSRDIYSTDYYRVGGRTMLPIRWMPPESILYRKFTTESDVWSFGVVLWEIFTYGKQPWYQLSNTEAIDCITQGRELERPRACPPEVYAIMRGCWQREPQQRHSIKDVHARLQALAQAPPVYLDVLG

NEK11 (human) = NEK11 (human) (UniProt Q8NG66)
NUAK2 (human) = NUAK2 (human) (UniProt Q9H093)
MAP3K9 (human) = MAP3K9 (human) (UniProt P80192)
PTK2B (human) = PTK2B (human) (UniProt Q14289)
AKT3 (human) = AKT3 (human) (UniProt Q9Y243)
PIK3CG (human) = PIK3CG (human) (UniProt P48736)
STK32A (human) = STK32A (human) (UniProt Q8WU08)
PIK3C2G (human) = PIK3C2G (human) (UniProt O75747)
PIK3C2G (human), sequence (O75747 whole entry, looked up): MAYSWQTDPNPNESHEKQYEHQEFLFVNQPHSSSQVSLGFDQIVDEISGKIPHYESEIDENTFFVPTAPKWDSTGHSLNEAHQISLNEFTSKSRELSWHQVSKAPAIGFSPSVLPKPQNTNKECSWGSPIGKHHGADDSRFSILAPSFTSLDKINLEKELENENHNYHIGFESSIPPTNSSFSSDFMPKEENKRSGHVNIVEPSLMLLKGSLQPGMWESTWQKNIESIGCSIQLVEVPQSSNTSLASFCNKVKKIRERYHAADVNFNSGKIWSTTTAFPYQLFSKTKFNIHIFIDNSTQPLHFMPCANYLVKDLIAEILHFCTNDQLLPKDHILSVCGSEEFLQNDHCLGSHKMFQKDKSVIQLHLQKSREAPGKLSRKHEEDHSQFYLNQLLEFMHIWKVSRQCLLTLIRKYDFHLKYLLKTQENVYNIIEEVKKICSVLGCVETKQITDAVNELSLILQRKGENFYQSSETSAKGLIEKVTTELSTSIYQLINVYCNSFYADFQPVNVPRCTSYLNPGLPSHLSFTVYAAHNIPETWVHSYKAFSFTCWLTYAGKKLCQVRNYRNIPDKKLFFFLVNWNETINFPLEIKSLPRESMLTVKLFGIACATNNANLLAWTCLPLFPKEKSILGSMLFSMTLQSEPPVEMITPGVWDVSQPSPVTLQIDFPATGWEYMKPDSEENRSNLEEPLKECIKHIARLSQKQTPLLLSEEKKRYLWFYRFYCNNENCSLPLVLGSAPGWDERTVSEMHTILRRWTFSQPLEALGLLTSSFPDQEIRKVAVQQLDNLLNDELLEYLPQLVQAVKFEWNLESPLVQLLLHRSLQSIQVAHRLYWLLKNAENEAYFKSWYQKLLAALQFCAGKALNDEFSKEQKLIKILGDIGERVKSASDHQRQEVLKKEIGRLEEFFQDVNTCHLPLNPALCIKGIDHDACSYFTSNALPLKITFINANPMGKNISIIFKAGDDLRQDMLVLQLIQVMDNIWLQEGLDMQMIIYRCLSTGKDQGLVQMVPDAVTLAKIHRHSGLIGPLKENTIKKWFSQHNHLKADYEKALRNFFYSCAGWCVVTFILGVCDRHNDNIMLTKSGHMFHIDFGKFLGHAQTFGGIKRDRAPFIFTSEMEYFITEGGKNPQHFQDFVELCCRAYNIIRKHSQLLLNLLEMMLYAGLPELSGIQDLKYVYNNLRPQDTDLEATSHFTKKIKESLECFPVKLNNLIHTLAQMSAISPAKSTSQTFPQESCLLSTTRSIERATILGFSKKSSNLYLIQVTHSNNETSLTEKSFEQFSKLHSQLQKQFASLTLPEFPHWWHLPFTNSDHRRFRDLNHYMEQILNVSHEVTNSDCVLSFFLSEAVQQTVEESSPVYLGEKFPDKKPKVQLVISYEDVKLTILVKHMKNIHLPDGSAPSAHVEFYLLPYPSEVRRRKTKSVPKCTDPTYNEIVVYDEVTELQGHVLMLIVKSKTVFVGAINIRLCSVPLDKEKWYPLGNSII

PKN3 (M.tuberculosis) = PKN3 (M.tuberculosis) (UniProt Q6P5Z2)
STK32B (human) = STK32B (human) (UniProt Q9NY57)
STK32B (human), sequence (Q9NY57 whole entry, looked up): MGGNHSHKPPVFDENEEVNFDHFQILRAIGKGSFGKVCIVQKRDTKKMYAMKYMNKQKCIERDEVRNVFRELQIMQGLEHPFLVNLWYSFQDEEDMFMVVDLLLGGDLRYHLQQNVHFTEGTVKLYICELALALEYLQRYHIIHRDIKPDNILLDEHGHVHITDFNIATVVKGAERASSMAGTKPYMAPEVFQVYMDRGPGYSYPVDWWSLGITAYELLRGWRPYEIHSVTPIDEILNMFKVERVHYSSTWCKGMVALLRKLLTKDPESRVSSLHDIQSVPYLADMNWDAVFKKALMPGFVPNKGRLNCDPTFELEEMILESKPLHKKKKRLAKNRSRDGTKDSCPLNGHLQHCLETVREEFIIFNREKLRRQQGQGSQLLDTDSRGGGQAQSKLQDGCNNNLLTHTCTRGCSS

NLK (human) = NLK (human) (UniProt Q9UBE8)
ABL2 (human) = ABL2 (human) (UniProt P42684)
GRK7 (human) = GRK7 (human) (UniProt Q8WTQ7)
GRK7 (human), sequence (Q8WTQ7 whole entry, looked up): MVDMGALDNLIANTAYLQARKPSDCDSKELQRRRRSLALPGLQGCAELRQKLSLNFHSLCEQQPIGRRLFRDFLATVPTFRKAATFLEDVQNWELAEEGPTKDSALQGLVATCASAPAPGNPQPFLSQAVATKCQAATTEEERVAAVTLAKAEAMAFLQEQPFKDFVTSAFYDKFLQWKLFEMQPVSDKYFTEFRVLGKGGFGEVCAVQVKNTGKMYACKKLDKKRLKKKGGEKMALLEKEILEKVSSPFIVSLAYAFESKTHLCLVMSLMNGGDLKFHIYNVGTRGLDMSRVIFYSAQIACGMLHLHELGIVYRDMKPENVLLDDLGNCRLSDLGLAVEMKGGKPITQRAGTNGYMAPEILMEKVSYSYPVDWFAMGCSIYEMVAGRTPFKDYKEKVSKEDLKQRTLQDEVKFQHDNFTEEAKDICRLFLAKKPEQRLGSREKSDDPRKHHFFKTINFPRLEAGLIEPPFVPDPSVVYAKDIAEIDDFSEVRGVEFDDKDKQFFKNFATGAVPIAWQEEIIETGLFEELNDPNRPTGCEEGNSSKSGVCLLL

CAMK2D (human) = CAMK2D (human) (UniProt Q13557)
ULK3 (human) = ULK3 (human) (UniProt Q6PHR2)
PTK2 (human) = PTK2 (human) (UniProt Q05397)
EPHA7 (human) = EPHA7 (human) (UniProt Q15375)
GSK3A (human) = GSK3A (human) (UniProt P49840)
STK4 (human) = STK4 (human) (UniProt Q13043)
BTK (human) = BTK (human) (UniProt Q06187)
HIPK3 (human) = HIPK3 (human) (UniProt Q9H422)
YES1 (human) = YES1 (human) (UniProt P07947)

Structure (SMILES): N#Cc1cc(-c2ccnc(Nc3ccc(-n4cnc(-c5cccnc5)n4)cc3)n2)cc(N2CCOCC2)c1
- kinase still bound, per cent of control (MARK1 (human)): 84%
- kinase still bound, per cent of control (AAK1 (human)): 5.4%
- kinase still bound, per cent of control (PKN1 (human)): 48%
- kinase still bound, per cent of control (PLK4 (human)): 22%
- kinase still bound, per cent of control (ROCK1 (human)): 52%
- kinase still bound, per cent of control (SRPK3 (human)): 23%
- kinase still bound, per cent of control (SIK3 (human)): 100%
- kinase still bound, per cent of control (STK32C (human)): 89%
- kinase still bound, per cent of control (NTRK2 (human)): 100%
- kinase still bound, per cent of control (MAP4K3 (human)): 6.3%
- kinase still bound, per cent of control (EPHB4 (human)): 70%
- kinase still bound, per cent of control (RAF1 (human)): 91%
- kinase still bound, per cent of control (RPS6KA2 KD2 (human)): 75%
- kinase still bound, per cent of control [1]: 12%
- kinase still bound, per cent of control (SRC (human)): 38%
- kinase still bound, per cent of control (CLK4 (human)): 7.2%
- kinase still bound, per cent of control (FGFR4 (human)): 99%
- kinase still bound, per cent of control (NTRK1 (human)): 53%
- kinase still bound, per cent of control (NEK11 (human)): 100%
- kinase still bound, per cent of control (NUAK2 (human)): 57%
- kinase still bound, per cent of control (MAP3K9 (human)): 22%
- kinase still bound, per cent of control (PTK2B (human)): 20%
- kinase still bound, per cent of control (AKT3 (human)): 100%
- kinase still bound, per cent of control (PIK3CG (human)): 0.75%
- kinase still bound, per cent of control (STK32A (human)): 100%
- kinase still bound, per cent of control (PIK3C2G (human)): 100%
- kinase still bound, per cent of control (PKN3 (M.tuberculosis)): 6.3%
- kinase still bound, per cent of control (STK32B (human)): 100%
- kinase still bound, per cent of control (NLK (human)): 76%
- kinase still bound, per cent of control (ABL2 (human)): 67%
- kinase still bound, per cent of control (GRK7 (human)): 70%
- kinase still bound, per cent of control (CAMK2D (human)): 24%
- kinase still bound, per cent of control (ULK3 (human)): 6%
- kinase still bound, per cent of control (PTK2 (human)): 77%
- kinase still bound, per cent of control (EPHA7 (human)): 85%
- kinase still bound, per cent of control (GSK3A (human)): 3.5%
- kinase still bound, per cent of control (STK4 (human)): 89%
- kinase still bound, per cent of control (BTK (human)): 74%
- kinase still bound, per cent of control (HIPK3 (human)): 5.5%
- kinase still bound, per cent of control (YES1 (human)): 79%

Structure (SMILES): CC1=C(C(=O)Nc2cc3cn[nH]c3cc2F)C(c2ccc(C(F)(F)F)cc2)CC(=O)N1 (stereo not given)
- kinase still bound, per cent of control (MARK1 (human)): 100%
- kinase still bound, per cent of control (AAK1 (human)): 70%
- kinase still bound, per cent of control (PKN1 (human)): 19%
- kinase still bound, per cent of control (PLK4 (human)): 86%
- kinase still bound, per cent of control (ROCK1 (human)): 0.3%
- kinase still bound, per cent of control (SRPK3 (human)): 98%
- kinase still bound, per cent of control (SIK3 (human)): 94%
- kinase still bound, per cent of control (STK32C (human)): 48%
- kinase still bound, per cent of control (NTRK2 (human)): 76%
- kinase still bound, per cent of control (MAP4K3 (human)): 77%
- kinase still bound, per cent of control (EPHB4 (human)): 88%
- kinase still bound, per cent of control (RAF1 (human)): 100%
- kinase still bound, per cent of control (RPS6KA2 KD2 (human)): 94%
- kinase still bound, per cent of control [1]: 100%
- kinase still bound, per cent of control (SRC (human)): 83%
- kinase still bound, per cent of control (CLK4 (human)): 100%
- kinase still bound, per cent of control (FGFR4 (human)): 67%
- kinase still bound, per cent of control (NTRK1 (human)): 91%
- kinase still bound, per cent of control (NEK11 (human)): 100%
- kinase still bound, per cent of control (NUAK2 (human)): 6%
- kinase still bound, per cent of control (MAP3K9 (human)): 93%
- kinase still bound, per cent of control (PTK2B (human)): 100%
- kinase still bound, per cent of control (AKT3 (human)): 40%
- kinase still bound, per cent of control (PIK3CG (human)): 88%
- kinase still bound, per cent of control (STK32A (human)): 52%
- kinase still bound, per cent of control (PIK3C2G (human)): 52%
- kinase still bound, per cent of control (PKN3 (M.tuberculosis)): 92%
- kinase still bound, per cent of control (STK32B (human)): 52%
- kinase still bound, per cent of control (NLK (human)): 92%
- kinase still bound, per cent of control (ABL2 (human)): 86%
- kinase still bound, per cent of control (GRK7 (human)): 75%
- kinase still bound, per cent of control (CAMK2D (human)): 100%
- kinase still bound, per cent of control (ULK3 (human)): 99%
- kinase still bound, per cent of control (PTK2 (human)): 79%
- kinase still bound, per cent of control (EPHA7 (human)): 80%
- kinase still bound, per cent of control (GSK3A (human)): 100%
- kinase still bound, per cent of control (STK4 (human)): 100%
- kinase still bound, per cent of control (BTK (human)): 14%
- kinase still bound, per cent of control (HIPK3 (human)): 85%
- kinase still bound, per cent of control (YES1 (human)): 65%
